pKi: −log10 of the molar value.
What was measured:
human NK1 receptor = molecular target: T1, human NK1 receptor (Homo sapiens, UniProt P25103); experiment: NK1 receptor binding assay, [3H]substance P displacement; conditions: human NK1 receptors in CHO cells, [3H]substance P 0.6 nM
T1 construct: expressed in transfected cells; host or cells: CHO cells (Semliki virus expression system), membrane suspension

[1] = molecular target: T2, Recombinant human NK3 (hNK3) receptor (Homo sapiens, UniProt P29371); experiment: NK3 receptor binding assay, [3H]SR142801 displacement; conditions: hNK3 receptor membranes, [3H]SR142801 0.3 nM
T2 construct: expressed in transfected cells; membrane preparations of the recombinant receptor
T2 sequence (P29371 1-465): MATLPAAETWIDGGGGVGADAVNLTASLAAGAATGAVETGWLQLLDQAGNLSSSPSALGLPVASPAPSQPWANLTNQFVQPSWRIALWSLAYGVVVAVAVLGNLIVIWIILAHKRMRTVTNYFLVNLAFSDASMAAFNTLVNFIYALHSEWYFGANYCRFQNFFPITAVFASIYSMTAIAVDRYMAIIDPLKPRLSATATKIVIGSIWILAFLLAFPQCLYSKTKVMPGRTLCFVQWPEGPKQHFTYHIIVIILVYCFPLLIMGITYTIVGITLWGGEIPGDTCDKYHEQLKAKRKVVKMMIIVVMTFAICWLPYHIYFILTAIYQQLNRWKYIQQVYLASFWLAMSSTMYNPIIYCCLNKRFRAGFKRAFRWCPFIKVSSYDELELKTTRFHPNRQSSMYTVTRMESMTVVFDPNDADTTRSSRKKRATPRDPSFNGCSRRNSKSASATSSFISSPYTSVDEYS
Procedure: Recombinant human NK3 (hNK3) receptor affinity was determined in a 96 well plate assay, using [^3H]SR142801 (final concentration 0.3 nM) to radiolabel the hNK3 receptor in the presence of 10 concentrations of competing compound or buffer. Non specific binding was determined using 10 μM SB222200. Assay buffer consisted of Tris-HCl (50 mM, pH 7.4), BSA (0.1%), MnCl2 (4 mM) and phosphoramidon (1 μM). Membrane preparations of hNK3 receptors (approximately 2.5 μg/well in a 96 well plate) were used to initiate the incubation for 90 min at room temperature. This assay was terminated by rapid filtration under vacuum through GF/C filters, presoaked for 90 min with PEI (0.3%), with 3×0.5 ml washes of ice-cold Tris buffer (50 mM, pH 7.4) containing 0.1% BSA. The radioactivity retained on the filters was measured by scintillation counting. All assays were performed in duplicate in at least two separate experiments.

[2] = phase II trial, cited from earlier work

T1 sequence (P25103 whole entry): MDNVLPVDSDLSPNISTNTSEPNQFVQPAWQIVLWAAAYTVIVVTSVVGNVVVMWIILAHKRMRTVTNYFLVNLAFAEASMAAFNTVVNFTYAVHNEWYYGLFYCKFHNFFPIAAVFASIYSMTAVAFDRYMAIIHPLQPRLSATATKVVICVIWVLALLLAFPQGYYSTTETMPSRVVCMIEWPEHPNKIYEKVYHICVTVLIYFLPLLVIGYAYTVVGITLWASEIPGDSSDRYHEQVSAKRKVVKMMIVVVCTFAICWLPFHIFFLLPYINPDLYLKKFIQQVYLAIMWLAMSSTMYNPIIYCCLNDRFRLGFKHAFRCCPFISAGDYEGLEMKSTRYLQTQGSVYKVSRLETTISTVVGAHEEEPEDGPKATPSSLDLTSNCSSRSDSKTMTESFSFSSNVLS

| SMILES | pKi (human NK1 receptor) | pKi [1] | activity on positive symptoms of schizophrenia ([2]; altered behaviour, delusion, hallucinations, extreme emotions, excited motor activity, incoherent speech) | activity in the treatment of negative symptoms of schizophrenia ([2]; depression, anhedonia, social isolation or memory and attention deficits) |
| --- | --- | --- | --- | --- |
| CCn1ncc2c(-c3ccc(F)cc3C)c(N(C)C(=O)C(C)(C)c3cccc(Cl)c3)cnc21 [Example 29, 2-(3-Chloro-phenyl)-N-[1-ethyl-4-(4-fluoro-2-methyl-phenyl)-1H-pyrazolo[3,4-b]pyridin-5-yl]-N-methyl-isobutyramide] | 7.46 | 6.51 |  |  |
| CCn1ncc2c(-c3ccc(F)cc3C)c(N(C)C(=O)C(C)(C)c3cccc(C(F)(F)F)c3)cnc21 [Example 30, N-[1-Ethyl-4-(4-fluoro-2-methyl-phenyl)-1H-pyrazolo[3,4-b]pyridin-5-yl]-N-methyl-2-(3-trifluoromethyl-phenyl)-isobutyramide] | 7.91 | 6.06 |  |  |
| Cc1cc(F)ccc1-c1c(N(C)C(=O)C(C)(C)c2cc(C(F)(F)F)cc(C(F)(F)F)c2)cnc2c1cnn2S(=O)(=O)N(C)C [Example 37, 2-(3,5-Bis-trifluoromethyl-phenyl)-N-[1-dimethylsulfamoyl-4-(4-fluoro-2-methyl-phenyl)-1H-pyrazolo[3,4-b]pyridin-5-yl]-N-methyl-isobutyramide] | 8.12 | 7.11 |  |  |
| CC(=O)N(C)C1(c2ccccc2)CCN(CCC[C@]2(c3ccc(Cl)c(Cl)c3)CCCN(C(=O)c3ccccc3)C2)CC1 [SR 142,801, Osanetant] |  |  | active | inactive |

Now from value to compound, other results behind:

| pKi (human NK1 receptor) | pKi [1] | SMILES | activity on positive symptoms of schizophrenia ([2]; altered behaviour, delusion, hallucinations, extreme emotions, excited motor activity, incoherent speech) | activity in the treatment of negative symptoms of schizophrenia ([2]; depression, anhedonia, social isolation or memory and attention deficits) |
| --- | --- | --- | --- | --- |
| 8.92 | 7.89 | CC(=O)n1ncc2c(-c3ccc(F)cc3C)c(N(C)C(=O)C(C)(C)c3cc(C(F)(F)F)cc(C(F)(F)F)c3)cnc21 [Example 31, N-[1-Acetyl-4-(4-fluoro-2-methyl-phenyl)-1H-pyrazolo[3,4-b]pyridin-5-yl]-2-(3,5-bis-trifluoromethyl-phenyl)-N-methyl-isobutyramide] |  |  |
| 8.72 | 7.55 | COCC(=O)n1ncc2c(-c3ccc(F)cc3C)c(N(C)C(=O)C(C)(C)c3cc(C(F)(F)F)cc(C(F)(F)F)c3)cnc21 [Example 32, 2-(3,5-Bis-trifluoromethyl-phenyl)-N-[4-(4-fluoro-2-methyl-phenyl)-1-(2-methoxy-acetyl)-1H-pyrazolo[3,4-b]pyridin-5-yl]-N-methyl-isobutyramide] |  |  |
| 8.80 | 8.00 | Cc1cc(F)ccc1-c1c(N(C)C(=O)C(C)(C)c2cc(C(F)(F)F)cc(C(F)(F)F)c2)cnc2c1cnn2C(=O)C1CC1 [Example 33, 2-(3,5-Bis-trifluoromethyl-phenyl)-N-[1-cyclopropanecarbonyl-4-(4-fluoro-2-methyl-phenyl)-1H-pyrazolo[3,4-b]pyridin-5-yl]-N-methyl-isobutyramide] |  |  |
| 9.22 | 7.82 | Cc1cc(F)ccc1-c1c(N(C)C(=O)C(C)(C)c2cc(C(F)(F)F)cc(C(F)(F)F)c2)cnc2c1cnn2S(C)(=O)=O [Example 36, 2-(3,5-Bis-trifluoromethyl-phenyl)-N-[4-(4-fluoro-2-methyl-phenyl)-1-methanesulfonyl-1H-pyrazolo[3,4-b]pyridin-5-yl]-N-methyl-isobutyramide] |  |  |
| 8.96 | 8.10 | Cc1cc(F)ccc1-c1c(N(C)C(=O)C(C)(C)c2cc(C(F)(F)F)cc(C(F)(F)F)c2)cnc2c1cnn2CS(C)(=O)=O [Example 38, 2-(3,5-Bis-trifluoromethyl-phenyl)-N-[4-(4-fluoro-2-methyl-phenyl)-1-methanesulfonylmethyl-1H-pyrazolo[3,4-b]pyridin-5-yl]-N-methyl-isobutyramide] |  |  |
